Experimental data taken from US4868291A, “4'-deshydroxyepipodophyllotoxin glucosides: synthesis and use” (Bristol-Myers Company, priority 1987, dated 1989).
In brackets after ≈: the same amount, converted by molar mass. Where two headings read alike, the source gives them in different places.

Tests used:
[1] = test system: variety of cancers including small cell lung cancer, non-lymphocytic leukemia and non-seminomatous testicular cancer; conditions: clinical, background statement; cited from earlier work
[2] = Haim et al. 1986; cited from earlier work
[3] = test system: B16-F10; assay: In vitro cytotoxicity assay, B16-F10 murine melanoma; assay type: cell-based; conditions: dissolved in DMSO, two unlabelled lines of values
Protocol: (§1) The in vitro cytotoxicity assay involves growing various mammalian tumor cells, including human tumor cells, on Microtiter plates employing established tissue culture methods. The concentration of each compound required to inhibit cell growth by 50% (IC50) is then determined by a four-fold serial dilution technique. The validity of the method has been supported by a report published in the "Proceedings of the American Association for Cancer Research", 1984, 25: 1891 (Abst. No. 328). Tumor cells of the following type were employed: B16-F10 murine melanoma, Moser human colon, SW900 human lung resistant to teniposide (VM) and etoposide (VP) and three human colon tumor cell lines, i.e. HCT-116, HCT-VM and HCT-VP, the latter two being resistant to teniposide (VM) and etoposide (VP), respectively. IC50 values less than […] are a positive indicator of antitumor activity. Table I presents IC50 values against the above-mentioned cell lines.

[4] = test system: HCT/VP35; assay: In vitro cytotoxicity assay, HCT/VP35 human colon, etoposide resistant; assay type: cell-based; conditions: dissolved in DMSO, two unlabelled lines of values
Protocol: as §1

[5] = test system: MOSER; assay: In vitro cytotoxicity assay, Moser human colon; assay type: cell-based; conditions: dissolved in DMSO, two unlabelled lines of values
Protocol: as §1

[6] = test system: P388 murine leukemia; assay: Antitumor activity against murine P388 leukemia in CDF1 mice; assay type: in vivo
Protocol: Female CDF1 mice were implanted intraperitoneally with a tumor inoculum of 10^6 ascites cells of P388 murine leukemia and treated with various doses of the compound of Example 4; four mice were used for each dose level and ten were used as saline-treated control. The compound was administered by intraperitoneal injection in two injections on day 1 and day 5. Antitumor activity was expressed as %T/C which is the ratio of the median survival time (MST) of the drug-treated group to the MST of the saline-treated control group. A compound showing a %T/C of 125 or greater is generally considered to have significant antitumor activity in the P388 test. The experiment lasted 31 days at the end of which time the number of survivors was noted.

| SMILES | activity in the treatment of cancers [1] | metabolites formed on peroxidative activation [2] | IC50 ([3]; B16-F10) [µg/mL] | IC50 ([3]; Mus musculus, B16-F10, B16-F10, read-out: IC50) [µg/mL] | IC50 ([4]; HCT/VP35, resistant to etoposide) [µg/mL] | IC50 ([4]; Homo sapiens, HCT/VP35, HCT/VP35, resistant to etoposide, read-out: IC50) [µg/mL] | IC50 ([5]; Homo sapiens, read-out: IC50) [µg/mL] | IC50 [5] [µg/mL] | MST (median survival time) ([6]; 150 mg/kg/inj., i.p., days 1 and 5, dose with maximum effect, saline control 10.0 days) [days] | Day 5 No. mice alive/total ([6]; 150 mg/kg/inj., i.p., day 5) | mice alive at day 31 ([6]; day 31, test or control group) | % T/C (MST treated / MST control) ([6]; maximum %T/C, at 150 mg/kg/inj., i.p., days 1 and 5, 125 or greater is significant) [%] |
| --- | --- | --- | --- | --- | --- | --- | --- | --- | --- | --- | --- | --- |
| COc1cc([C@@H]2c3cc4c(cc3[C@@H](O[C@@H]3O[C@@H]5CO[C@@H](C)O[C@H]5[C@H](O)[C@H]3O)[C@H]3COC(=O)[C@H]23)OCO4)cc(OC)c1O [Etoposide] | active in the treatment of a variety of cancers | formation of two metabolites, one of which has been identified as the corresponding orthoquinone III | – | – | – | – | – | – | – | – | – | – |
| COc1cc(OC)cc([C@@H]2c3cc4c(cc3[C@@H](O[C@@H]3O[C@@H]5CO[C@@H](C)O[C@H]5[C@H](O)[C@H]3O)[C@H]3COC(=O)[C@H]23)OCO4)c1 [Example 4, 4'-Desmethoxyetoposide] | – | – | 27 (≈ 47.2 µM) | 23 (≈ 40.2 µM) | 3.5 (≈ 6.11 µM) | 3.3 (≈ 5.76 µM) | 60 (≈ 105 µM) | 31 (≈ 54.1 µM) | 17.5 | 4/4 | no mice were alive | 175 |
| COc1cc([C@@H]2c3cc4c(cc3[C@@H](O[C@@H]3O[C@@H]5CO[C@@H](c6cccs6)O[C@H]5[C@H](O)[C@H]3O)[C@H]3COC(=O)[C@H]23)OCO4)cc(OC)c1O [Teniposide] | active in the treatment of a variety of cancers | formation of two metabolites, one of which has been identified as the corresponding orthoquinone III | – | – | – | – | – | – | – | – | – | – |
